Laboratory results taken from US20250019386A1, “PYRROLO[1,2-b]-2-PYRIDAZINONE COMPOUNDS AS 5-HT4 RECEPTOR AGONISTS” (SUVEN LIFE SCIENCES LIMITED, priority 2022, published 2025).

Key:
[1] = Rat pharmacokinetic study; format: in vivo; conditions: male Wistar rats, plasma
Procedure: Male Wistar rats (250±50 g) were used as experimental animals. Animals were housed individually in polypropylene cages. Two days prior to study, rats were anesthetized with isoflurane for surgical placement of jugular vein catheter. Rats were randomly divided for oral (3 mg/kg and 10 mL/kg as dose volume) and intravenous (1 mg/kg and 2 mL/kg as dose volume) dosing (n=3/group) and fasted overnight before oral dosing (p.o.). However, rats allocated to intravenous dosing food and water was provided ad libitum.
Intravenous formulation was prepared by using water for injection as vehicle. For Oral, formulation was prepared by using reagent grade water as vehicle. The dose formulations were prepared freshly on the day of dosing.
After dosing of animal, each time point a 200 μL of blood sample was collected through jugular vein and replenished with an equivalent volume of normal saline. The collected blood sample was transferred into a labeled eppendorf tube containing 10 μL of sodium heparin (1000 IU/mL) as an anticoagulant. Typically blood samples were collected at following time points: 0.08, 0.25, 0.5, 1, 2, 4, 6, 8, and 24 h post dose. Blood was centrifuged at 4000 rpm for 10 min. Plasma was separated and stored frozen at −80° C. until analysis. The concentrations of the test compounds were quantified in plasma by qualified LC-MS/MS method using a suitable extraction technique. The test compounds were quantified in the calibration range around 1-2000 ng/mL in plasma. Study samples were analyzed using calibration samples in the batch and quality control samples spread across the batch.
Pharmacokinetic parameters Cmax, AUCt, t1/2 and bioavailability were calculated by non-compartmental model using standard non-compartmental model by using Phoenix WinNonlin 6.4 version Software.

gastric emptying = experiment: Effect on gastric emptying in Beagle dogs (clonidine model of gastroparesis); format: in vivo; conditions: 3 and 10 mg/kg oral
Procedure: Six beagle dogs were used for the study in a crossover manner such that all 6 dogs received all the treatments. Each dog was placed in an individual cage after overnight fasting and water removed. To provide a model of gastroparesis, clonidine (α2 adrenergic agonist) at a dose of 10 μg/kg was injected subcutaneously 30 min before test meal administration.
Dogs were orally administered test compound of example 2 at 1, 3 and 10 mg/kg or vehicle or cisapride at 10 mg/kg immediately before the administration of clonidine. The test meal (10 mL/kg), made up of commercially available semi-solid food with 10 mg/kg of acetaminophen (APAP), was provided 30 min after clonidine injection. Blood samples were collected from cephalic vein at 0, 0.25, 0.5, 0.75, 1.0, 1.25, 1.5 & 2.0 h after test meal administration and then plasma was separated by centrifugation. Plasma concentrations of APAP were determined by in-house methods using LC-MS/MS.

colonic transit = experiment: Effect on colonic transit in Swiss mice; format: in vivo, Male Swiss mice; conditions: 1 and 3 mg/kg, p.o., carmine dye, 3 h after dye
Procedure: Male Swiss mice of body weight ˜20-30 g were fasted for 16 h with free access to water prior to the experiment. Mice were administrated compound of example 2 or vehicle, 30 min after administration of 0.5 ml of carmine dye solution. Mice were sacrificed 3 h after dye administration and the distance traveled by the dye from proximal colon was measured. Colonic transit was expressed as % colonic transit=100×(length of colon in which carmine moved/total length of colon).

[2] = biological target: hERG tail currents in HEK293-hERG cells (Homo sapiens (Human), UniProt Q12809); experiment: hERG patch-clamp assay; format: cell-based; conditions: whole cell patch-clamp, tail current at -40 mV, read-out: half maximal inhibitory concentration of hERG tail currents (IC50)
Sequence of hERG tail currents in HEK293-hERG cells (Q12809 whole entry): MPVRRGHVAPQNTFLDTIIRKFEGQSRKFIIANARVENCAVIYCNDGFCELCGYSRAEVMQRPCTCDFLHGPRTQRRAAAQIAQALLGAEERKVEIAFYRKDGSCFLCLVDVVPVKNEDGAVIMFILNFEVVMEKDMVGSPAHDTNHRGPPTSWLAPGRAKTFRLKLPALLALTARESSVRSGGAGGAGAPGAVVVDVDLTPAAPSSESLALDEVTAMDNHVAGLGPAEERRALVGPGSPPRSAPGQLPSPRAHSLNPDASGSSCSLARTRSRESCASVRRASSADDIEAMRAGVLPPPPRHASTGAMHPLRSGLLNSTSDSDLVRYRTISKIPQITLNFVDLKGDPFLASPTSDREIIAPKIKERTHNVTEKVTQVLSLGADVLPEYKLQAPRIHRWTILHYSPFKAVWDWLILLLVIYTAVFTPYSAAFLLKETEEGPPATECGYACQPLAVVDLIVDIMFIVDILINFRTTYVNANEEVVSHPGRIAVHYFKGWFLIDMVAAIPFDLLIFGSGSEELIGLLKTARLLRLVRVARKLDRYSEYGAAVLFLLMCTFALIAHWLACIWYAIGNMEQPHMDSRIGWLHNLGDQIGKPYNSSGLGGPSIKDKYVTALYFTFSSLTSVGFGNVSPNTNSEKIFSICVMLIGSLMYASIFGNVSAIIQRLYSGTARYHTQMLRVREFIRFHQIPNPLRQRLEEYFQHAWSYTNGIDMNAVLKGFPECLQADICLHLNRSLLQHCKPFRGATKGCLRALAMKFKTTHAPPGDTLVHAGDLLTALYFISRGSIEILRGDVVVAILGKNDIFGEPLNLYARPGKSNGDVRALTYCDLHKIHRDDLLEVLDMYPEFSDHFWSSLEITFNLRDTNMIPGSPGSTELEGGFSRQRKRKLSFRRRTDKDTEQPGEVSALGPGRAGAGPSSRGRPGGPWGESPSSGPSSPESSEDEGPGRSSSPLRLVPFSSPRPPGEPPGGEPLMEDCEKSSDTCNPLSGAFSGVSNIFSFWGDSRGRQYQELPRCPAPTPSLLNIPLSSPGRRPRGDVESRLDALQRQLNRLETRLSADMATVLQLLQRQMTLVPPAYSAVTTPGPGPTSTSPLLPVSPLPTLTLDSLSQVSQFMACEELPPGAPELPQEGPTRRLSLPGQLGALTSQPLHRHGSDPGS
Procedure: The HEK293-hERG cells for patch-clamp assay were cultured in DMEM: Ham's F12 (1:1 ratio) with 10% fetal bovine serum containing 0.5 mg/ml of selective antibiotic, G-418 sulfate (Calbiochem) and 0.1% penicillin and streptomycin (Thermofisher, MA, USA) in T-75 flask. Cells were harvested at 70-80% confluency by washing with Hanks' Balanced Salt Solution lacking Mg^2+ and Ca^2+ ions and subsequent addition of accumax (2.5 mL) (Sigma Aldrich, MO, USA) and incubated the flask at 5% CO2 and 37° C. until cells start sliding of the surface. After cells have completely detached from the surface about 10 mL of complete media without selective antibiotic was added and pipetted to detach the cell clumps. Additional 7.5 mL of complete media was added to collect the residual cells in the flask and cell suspension was incubated at 5% CO2 and 37° C. for 30 min. […] The peak current is measured at −40 mV tail currents using Patchliner instrument. The I-V pulse protocol was pulsed every 10 s and online analysis were recorded by substituting the leak current from the peak current and IC50 values were calculated from IGOR PRO software (WaveMetrics, Inc. Portland, OR, USA).

5-HT4 receptors = 5-HT4 receptors (Homo sapiens (Human), UniProt Q13639); experiment: Determination of EC50 values for 5-HT4 receptor (pCRE-Luc reporter assay); format: cell-based; conditions: CHO cells expressing recombinant human 5-HT4 receptor and pCRE-Luc reporter; 4 h incubation; luciferase activity
Sequence of 5-HT4 receptors (Q13639 whole entry): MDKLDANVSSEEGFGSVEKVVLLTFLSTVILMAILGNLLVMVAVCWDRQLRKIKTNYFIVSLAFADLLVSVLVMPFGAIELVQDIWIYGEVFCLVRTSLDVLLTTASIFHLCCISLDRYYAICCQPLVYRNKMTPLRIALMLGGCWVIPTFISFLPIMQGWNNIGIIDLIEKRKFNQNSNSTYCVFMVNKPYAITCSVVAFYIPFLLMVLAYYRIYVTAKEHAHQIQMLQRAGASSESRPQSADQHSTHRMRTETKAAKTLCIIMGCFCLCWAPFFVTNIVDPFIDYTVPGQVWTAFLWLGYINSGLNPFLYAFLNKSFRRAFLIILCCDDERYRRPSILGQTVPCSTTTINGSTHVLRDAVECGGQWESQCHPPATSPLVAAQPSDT
Procedure: A stable CHO cell line expressing recombinant human 5-HT4 receptor and pCRE-Luc reporter system was used for cell-based assay. The assay offers a non-radioactive based approach to determine binding of a compound to GPCRs. In this specific assay, the level of intracellular cyclic AMP, which is modulated by activation, or inhibition of the receptor is measured. The recombinant cells harbor luciferase reporter gene under the control of cAMP response element.
The above cells were grown in 96 well clear bottom white plates in Ham's F12 medium containing 10% fetal bovine serum. Prior to the addition of compounds or standard agonist, cells were serum starved overnight. Increasing concentrations of test compounds were added to the cells in OptiMEM medium. The incubation was continued in CO2 incubator at 37° C. with 5% CO2 conditions for 4 h. Medium was removed and cells were washed with phosphate buffered saline. The cells were lysed and luciferase activity was measured in a Luminometer. Concentration-response data was generated using the luciferase assay, following incubation of cells with receptor ligands, were analyzed by subtracting basal levels (i.e. with medium alone), then normalizing values as a percentage of controls (endogenous agonist serotonin (10 μM)). […] EC50 values of the compounds were defined as the concentration required in stimulating the luciferase activity by 50%.

With `CC(C)n1c(=O)c(C(=O)NC2CC3CCC(C2)N3C[C@@H](O)CN(C)S(C)(=O)=O)cc2cccn21.O=C(O)C(O)C(O)C(=O)O` (single isomer, unassigned) [Example 2] the AUC(0-t) ([1]; intravenous (bolus), 1 mg/kg) was 0.065 ± 0.003 µg·h/mL, the half-life ([1]; intravenous (bolus), 1 mg/kg) was 1.5 ± 0.5 h and the AUC(0-t) ([1]; oral (gavage), 3 mg/kg) was 0.16 ± 0.035 µg·h/mL. For the same molecule, the Cmax ([1]; oral (gavage), 3 mg/kg) was 0.051 ± 0.019 µg/mL, the bioavailability ([1]; oral 3 mg/kg vs intravenous 1 mg/kg) was 83 ± 18% and the gastric emptying (gastric emptying; clonidine-treated (10 μg/kg s.c.) beagle dogs, plasma APAP) was “enhanced the gastric emptying in dose dependent manner”. The gastric motor activity (gastric emptying; clonidine-treated beagle dogs) was “increased gastric motor activity”, the colonic transit (colonic transit) was “increased the colonic transit” and the IC50 [2] was > 10000 nM. The EC50 (5-HT4 receptors) was 4.1 nM.
